Measurements taken from patent publication US20130184270A1, “SUBSTITUTED 2,3-DIHYDROIMIDAZO[1,2-C]QUINAZOLINE-CONTAINING COMBINATIONS” (priority 2010, published 2013).
Like-named read-outs stand apart in the source and are kept apart here.

How the values were obtained:
[1] = test system: Lu7187 primary human tumor (NSCLC); conditions: for sensitivity of the model / T/C / animals with disease progression: Lu7187; for animals with disease progression: respective monotherapy groups
Procedure: (§1) The in vivo combination effects were evaluated in tumor xenograft models in nude mice with either established human tumor cell lines or patient-derived primary tumor models at the MTD and sub-MTD dosages.
Lu7187 primary human tumor was derived from a patient with NSCLC and was xenografted in nude mice. The tumor was propagated in vivo and tumor tissue from one in vivo passage was used for s.c. implantation in the inguinal region of male nude mice. Treatment was started when the tumors were approximately 0.1 cm^3 in size. Treatment was continued until progression of the tumors. Tumor diameters and body weight were monitored t weekly. cA* was dosed at 14 mg/kg, Q2D×10 from day 7 to day 25 (group C, H and I), or 10 mg/kg, BID×1 weekly on day 7, 14, 21 and 28. cB was dosed at either 12.5 mg/kg (group D, F and H), QD, or 25 mg/kg (group E, G and I), QD from day 7 to day 35.

[2] = test system: Lu7343 primary human tumor (NSCLC); assay: patient-derived NSCLC xenograft model, cA plus paclitaxel (text: Lu7187; FIG. 5: Lu7343); type: in vivo, nude mice
Procedure: as §1
The synergistic combination of cA* and palitaxel was also confirmed in a patient-derived NSCLC xenograft model—Lu7187.
FIG. 5: Dose-dependent tumor growth inhibition in Lu7343 primary human xenograft NSCLC model. Lu7343 primary human tumor was derived from a patient with NSCLC and was xenografted in nude mice. The tumor was propagated in vivo and tumor tissue from one in vivo passage was used for s.c. implantation in the inguinal region of male nude mice. Treatment was started when the tumors were approximately 0.1 cm^3 in size. Treatment was continued until progression of the tumors. Tumor diameters and body weight were monitored t weekly. cA* was dosed at 10 mg/kg, BIDx1 weekly on day 15, 22, and 29. paclitaxel was dosed at either 15 mg/kg, or 25 mg/kg, once a week on day 14, 21 and day 28.

[3] = test system: CRC SW620 Tumor Cell Line; assay: 72-hour cell proliferation assay (Cell Titer Glo), combination index; type: cell-based; conditions: Homo sapiens, SW-620; SW620, single agent, 90% inhibition not reached
Procedure: The effects of combinations of the present invention were evaluated using combination index isobologram analysis for in vitro assessment. The efficacy parameters were the effects in a 72-hour cell proliferation assay or in a 48-hour caspase 3/7 activation assay. Briefly, cells were plated in 384-well plate with 25 μL medium. […] Experiments were conducted in triplicates. The mapping EC50/IC50 and EC90/IC90 values were calculated using Analyze5 computer program. The corresponding component concentrations of cA and BB (either cB, or Lapatinib, or paclitaxel (as component B)) at the […] were calculated and used for plotting isobolograms. […] IC50 and IC90 refers to the IC50 and IC90 obtained from the dose-response curve of either cA* or cB alone, or cA* plus cB with the ratio indicated in the table, where the top relative concentration is defined as 1.

[4] = test system: NCI-H1975, NCI-H1650, HCT116, Colo205, MDA-MB-468 cell lines; assay: caspase 3/7 activation assay, example (cell line not named); type: cell-based
Procedure: The effects of combinations of the present invention were evaluated using combination index isobologram analysis for in vitro assessment. The efficacy parameters were the effects in a 72-hour cell proliferation assay or in a 48-hour caspase 3/7 activation assay. Briefly, cells were plated in 384-well plate with 25 μL medium. […] Experiments were conducted in triplicates. The mapping EC50/IC50 and EC90/IC90 values were calculated using Analyze5 computer program. The corresponding component concentrations of cA and BB (either cB, or Lapatinib, or paclitaxel (as component B)) at the […] were calculated and used for plotting isobolograms. […] The dose-response curve of either cA* or cB alone, or cA* (as component A) plus cB (as component B) with the ratio indicated in the figure, where the top relative concentrations are defined as 1.

[5] = test system: Co5841 primary human tumor (CRC); assay: Co5841 primary human xenograft CRC model; type: in vivo, nude mice
Procedure: as §1
FIG. 3: Dose-dependent tumor growth inhibition in Co5841 primary human xenograft CRC model. Co5841 primary human tumor was derived from a patient with CRC and was xenografted in nude mice. The tumor was propagated in vivo and tumor tissue from one in vivo passage was used for s.c. implantation in the inguinal region of male nude mice. Treatment was started when the tumors were approximately 0.1 cm^3 in size. Treatment was continued until progression of the tumors. Tumor diameters and body weight were monitored weekly. cA* was dosed at 14 mg/kg, Q2D×7 from day 6 to day 22 (group C, H and I), or 10 mg/kg, BID×1 weekly on day 6, 13, and 20. cB was dosed at either 12.5 mg/kg (group D, F and H), QD, […]

CC(=O)O[C@H]1C(=O)[C@@]2(C)[C@H]([C@H](OC(=O)c3ccccc3)[C@]3(O)C[C@H](OC(=O)[C@H](O)[C@@H](NC(=O)c4ccccc4)c4ccccc4)C(C)=C1C3(C)C)[C@]1(OC(C)=O)CO[C@@H]1C[C@@H]2O [Paclitaxel]
sensitivity of the model [1]: resistant | single agent efficacy ([2]; paclitaxel 25 mg/kg (MTD)): very efficacious | mice with disease progression after stopping the treatment ([2]; paclitaxel 25 mg/kg single agent): 60%

COc1c(OCCCN2CCOCC2)ccc2c1N=C(NC(=O)c1cnc(N)nc1)N1CCN=C21 [cA, 2-amino-N-[7-methoxy-8-(3-morpholin-4-ylpropoxy)-2,3-dihydroimidazo[1,2-c]quinazolin-5-yl]pyrimidine-5-carboxamide]
IC90 [3]: > 5 µM | induction of apoptosis (caspase 3/7), single agent ([4]; 5 μM): Neither 10 μM of cB nor 5 μM of cA as single agents could induce apoptosis | T/C ([5]; cA 10 mg/kg BID weekly (day 6, 13, 20)): 0.49 | animals with disease progression (DP) ([5]; cA 10 mg/kg BID weekly monotherapy): 90% | animals with disease progression (DP) ([5]; cA 14 mg/kg Q2D monotherapy): 100% | T/C ([5]; cA 14 mg/kg Q2D, day 6 to 22): 0.39 | T/C ([1]; cA 10 mg/kg BID weekly (day 7, 14, 21, 28)): 0.88 | animals with disease progression [1]: 100% | body weight loss of weekly dosing compared with Q2D dosing ([1]; mouse, in vivo): less body weight loss

COc1cc(F)c(F)c(Nc2ccc(I)cc2F)c1NS(=O)(=O)C1(C[C@H](O)CO)CC1 [cB, (S)—N-(3,4-difluoro-2-(2-fluoro-4-iodophenylamino)-6-methoxyphenyl)-1-(2,3-dihydroxypropyl)cyclopropane-1-sulfonamide]
IC90 [3]: > 5 µM | induction of apoptosis (caspase 3/7), single agent ([4]; 10 μM): Neither 10 μM of cB nor 5 μM of cA as single agents could induce apoptosis | T/C ([5]; cB 12.5 mg/kg daily, day 6 to 23): 0.35 | animals with disease progression (DP) ([5]; cB 25 mg/kg monotherapy): 70% | T/C ([1]; cB 12.5 mg/kg daily, day 7 to 35): 0.46 | T/C ([1]; cB 25 mg/kg daily, day 7 to 35): 0.31 | animals with disease progression [1]: 100%

C#Cc1cccc(Nc2ncnc3cc(OCCOC)c(OCCOC)cc23)c1 [erlotinib, reference compound]
sensitivity of the model [1]: resistant

COc1cc([C@@H]2c3cc4c(cc3[C@@H](O[C@@H]3O[C@@H]5CO[C@@H](C)O[C@H]5[C@H](O)[C@H]3O)[C@H]3COC(=O)[C@H]23)OCO4)cc(OC)c1O [etoposid, reference compound]
sensitivity of the model [1]: resistant
